This note sets out measurements from patent publication US7541367B2, “3-benzoimidazolyl-pyrazolopyridines useful in treating kinase disorders” (Janssen Pharmaceutica, N.V., priority 2005, dated 2009).

SMILES strings stand for the structures.

For one assay, the target named is T1, Aurora-A (Mus musculus, UniProt P97477).
T1 construct: polyhistidine (N)
T1 sequence (P97477 1-395): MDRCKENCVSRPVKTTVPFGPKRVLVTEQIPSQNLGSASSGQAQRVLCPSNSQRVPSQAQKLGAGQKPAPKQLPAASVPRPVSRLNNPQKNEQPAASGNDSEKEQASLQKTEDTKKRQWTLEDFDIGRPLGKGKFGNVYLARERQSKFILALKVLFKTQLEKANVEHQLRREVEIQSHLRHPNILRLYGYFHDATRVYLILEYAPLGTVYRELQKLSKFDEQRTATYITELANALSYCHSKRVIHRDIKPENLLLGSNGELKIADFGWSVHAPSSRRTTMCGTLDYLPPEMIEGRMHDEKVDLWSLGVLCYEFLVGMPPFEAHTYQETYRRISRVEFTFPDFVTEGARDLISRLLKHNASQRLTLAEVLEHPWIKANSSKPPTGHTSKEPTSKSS
The experiment in a line: Aurora-A kinase screening assay (33P-ATP FlashPlate).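 Also: His-tagged mouse Aurora-A phosphorylating a biotinylated peptide captured on streptavidin plates, read as 33P uptake by scintillation counting, 1% DMSO, inhibition scaled between per-plate maximum and minimum signals.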 It counts as biochemical. To be noted: 10 μM ATP, 1 hr at 30° C.

The next assay addresses T2, CDK1 (Homo sapiens, UniProt P06493).
T2 construct: purchased New England Biolabs, Beverly, Mass; 6020; host or cells: insect cells
The assay is described as follows: CDK-1 kinase screening assay (33P-ATP FlashPlate). As to conditions: human CDK1 with cyclin B; 10 μM ATP; 1 hr at 30° C. The class given is biochemical.

A further assay deals with T3, VEGF-R2 (Rattus norvegicus, UniProt O08775).
T3 construct: polyhistidine (N)
T3 sequence (O08775 786-1343): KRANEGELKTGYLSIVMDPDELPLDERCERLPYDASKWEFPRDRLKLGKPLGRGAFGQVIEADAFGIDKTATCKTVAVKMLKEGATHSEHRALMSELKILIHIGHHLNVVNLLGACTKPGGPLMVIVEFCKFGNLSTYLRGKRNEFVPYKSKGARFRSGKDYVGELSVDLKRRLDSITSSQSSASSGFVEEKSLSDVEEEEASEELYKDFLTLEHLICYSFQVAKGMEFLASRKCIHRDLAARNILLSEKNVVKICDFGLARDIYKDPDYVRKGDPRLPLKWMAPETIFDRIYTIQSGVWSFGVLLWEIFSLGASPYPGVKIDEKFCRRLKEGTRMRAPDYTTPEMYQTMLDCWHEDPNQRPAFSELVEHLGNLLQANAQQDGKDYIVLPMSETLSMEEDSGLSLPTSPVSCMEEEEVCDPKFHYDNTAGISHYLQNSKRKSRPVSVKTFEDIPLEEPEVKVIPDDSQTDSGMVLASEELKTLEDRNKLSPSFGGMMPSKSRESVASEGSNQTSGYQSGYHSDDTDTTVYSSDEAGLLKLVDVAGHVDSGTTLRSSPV
The assay is described as follows: VEGF-R2 kinase screening assay (33P-ATP FlashPlate).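 Also: Read-out is ³³P incorporation from ³³P-γ-ATP into biotinylated peptide substrate captured on streptavidin FlashPlate, counted by scintillation, 1% DMSO final, inhibition scaled between per-plate maximum and minimum signals.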 The class given is biochemical. To be noted: rat VEGF-R2 kinase domain; 10 μM ATP; 1 hr at 30° C.

The target of the next assay is T4, HER2 (Homo sapiens, UniProt P04626).
T4 construct: GST (Glutathione-S-Transferase) (N); HIS6 (N); thrombin cleavage site (N); purchased Proqinase, Freiburg, Germany
T4 sequence (P04626 679-1255): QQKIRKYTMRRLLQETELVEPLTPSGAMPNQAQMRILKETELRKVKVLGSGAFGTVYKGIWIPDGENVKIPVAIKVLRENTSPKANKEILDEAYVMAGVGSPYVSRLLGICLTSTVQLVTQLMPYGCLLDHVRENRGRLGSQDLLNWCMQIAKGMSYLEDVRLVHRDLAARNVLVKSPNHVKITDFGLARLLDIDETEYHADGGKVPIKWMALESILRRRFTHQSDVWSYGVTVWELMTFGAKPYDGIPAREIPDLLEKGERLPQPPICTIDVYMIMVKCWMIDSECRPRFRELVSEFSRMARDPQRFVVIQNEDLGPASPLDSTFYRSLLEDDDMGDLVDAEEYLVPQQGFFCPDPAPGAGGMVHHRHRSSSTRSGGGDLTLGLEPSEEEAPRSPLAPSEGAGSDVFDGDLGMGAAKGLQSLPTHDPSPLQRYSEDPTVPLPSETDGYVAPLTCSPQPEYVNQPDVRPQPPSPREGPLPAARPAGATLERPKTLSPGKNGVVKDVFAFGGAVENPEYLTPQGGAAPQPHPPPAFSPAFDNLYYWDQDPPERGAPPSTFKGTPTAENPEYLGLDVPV
The experiment in a line: HER2 kinase screening assay (33P-ATP FlashPlate).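 Also: Biotin-poly(GT) 4:1 peptide captured on streptavidin FlashPlate, 33P transfer from γ-ATP read by scintillation counting, lower incorporation means inhibition, 1% DMSO final, 100 µL reaction.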 It counts as biochemical. To be noted: GST-HIS6 HER-2 aa 679 to 1255; 10 μM ATP; 1 hr at 30° C.

The test system of another assay is A375 malignant melanoma. The experiment in a line: Cell Proliferation Inhibition Assay (14C-thymidine incorporation), A375.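 Also: proliferation measured by radiolabelled thymidine uptake into new DNA, counted in scintillating 96-well plates, compound-treated wells compared with DMSO-only control wells.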 The class given is cell-based. To be noted: Homo sapiens, A-375, A375 cells.
In another assay the target is T5, c-Src kinase (Homo sapiens, UniProt P12931).
T5 construct: purchased Upstate Biotechnology, Lake Placid, N.Y
T5 sequence (P12931 whole entry): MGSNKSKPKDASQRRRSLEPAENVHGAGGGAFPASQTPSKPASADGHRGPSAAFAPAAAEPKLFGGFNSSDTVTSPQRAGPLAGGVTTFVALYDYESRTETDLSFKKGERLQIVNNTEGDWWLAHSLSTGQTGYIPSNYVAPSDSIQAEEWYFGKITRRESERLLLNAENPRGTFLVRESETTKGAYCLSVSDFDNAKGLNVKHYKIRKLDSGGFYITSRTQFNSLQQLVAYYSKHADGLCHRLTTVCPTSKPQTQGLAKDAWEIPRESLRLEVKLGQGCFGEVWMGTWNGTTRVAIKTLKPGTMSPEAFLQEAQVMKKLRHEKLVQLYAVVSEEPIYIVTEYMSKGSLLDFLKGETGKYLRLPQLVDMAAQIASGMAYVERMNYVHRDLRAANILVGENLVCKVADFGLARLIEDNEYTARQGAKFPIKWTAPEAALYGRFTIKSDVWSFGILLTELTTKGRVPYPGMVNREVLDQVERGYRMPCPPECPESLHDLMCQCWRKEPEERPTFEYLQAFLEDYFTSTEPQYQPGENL
The assay is described as follows: c-Src Kinase Assay. The class given is biochemical. To be noted: 5 μM ATP. The protocol: A mixture of a 10× kinase buffer (80 mM MOPS at pH 7.0, 2 mM EDTA and 100 mM Magnesium Chloride), ATP (5 μM final from a 10 mM stock), a Cdc2 peptide […] (100 μM final from a 2.5 mM stock), γ-^33P ATP (10 μCi/μL stock) and water (for a total of 20 μL/well) was added to each well of a Streptavidin Flashplate.
Test compound in 100% DMSO (0.5 μL) was added to the appropriate wells. Diluted c-Src kinase (human) (Accession Number SWISS-PROT P12931) (Upstate Biotechnology, Lake Placid, N.Y.) (diluted in a buffer consisting of 20 mM MOPS at pH 7.0, 1 mM EDTA, β-mercaptoethanol (0.1%), Brij-35 (0.01%), glycerol (5%), and 1 mg/mL bovine serum albumin) (2.5 μL) was added to the wells to initiate the reactions. The reaction plates were incubated at 30° C. for 40 min. The reaction was terminated by the addition of a 3% phosphoric acid solution (5 μL). The reaction product (10 μL) was spotted onto a P30 filtermat and washed for 5 minutes in phosphoric acid (75 mM). The wash sequence was repeated two more times, followed with one final wash in methanol. The plates were then dried, sealed and read on the TopCount scintillation counter after adding 30 μL scintillation fluid.
A maximum and minimum signal for the assay was determined on each plate. The percent inhibition of a test compound was calculated according to the formula: […]
For a series of test concentrations, the IC50 was derived by graphing percent inhibition against the log of the concentrations tested for a given compound with results shown in Table 2
For compounds with multiple values, each value represents a separate assay result.

In another assay the test system is HCT-116 colon carcinoma. The experiment in a line: Cell Proliferation Inhibition Assay (14C-thymidine incorporation), HCT-116.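 Also: proliferation measured as methyl 14C-thymidine uptake into new DNA, counted in 96-well scintillating microplates, compared with DMSO-only control wells.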 The class given is cell-based. To be noted: Homo sapiens, HCT-116, HCT-116 cells. (Incorporation of labelled thymidine or its analogues reports DNA synthesis.)
In assay [1] the test system is HeLa cervical adenocarcinoma. The assay is described as follows: Cell Proliferation Inhibition Assay (14C-thymidine incorporation), HeLa.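 Also: test compound in DMSO added to cells seeded in scintillating 96-well plates, DMSO-only wells as control, uptake of methyl 14C-thymidine into new DNA counted.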 The class given is cell-based. As to conditions: Homo sapiens, HeLa, HeLa cells.
A further assay has as its target T6, RET (Homo sapiens, UniProt P07949).
T6 construct: polyhistidine (N)
T6 sequence (P07949 658-1114 limits assumed): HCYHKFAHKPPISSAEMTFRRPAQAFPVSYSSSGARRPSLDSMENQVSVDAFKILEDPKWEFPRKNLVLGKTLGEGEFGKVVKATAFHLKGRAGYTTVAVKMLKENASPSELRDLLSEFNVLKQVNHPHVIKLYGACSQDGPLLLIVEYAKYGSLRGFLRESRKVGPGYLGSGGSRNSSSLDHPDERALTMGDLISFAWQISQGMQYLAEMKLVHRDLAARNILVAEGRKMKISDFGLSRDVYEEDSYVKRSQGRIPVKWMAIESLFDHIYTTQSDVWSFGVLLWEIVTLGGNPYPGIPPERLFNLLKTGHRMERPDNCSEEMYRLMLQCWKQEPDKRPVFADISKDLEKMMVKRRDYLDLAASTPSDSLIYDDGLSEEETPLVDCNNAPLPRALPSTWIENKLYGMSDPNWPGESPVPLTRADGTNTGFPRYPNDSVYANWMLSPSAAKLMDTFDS
The experiment in a line: RET kinase screening assay (33P-ATP FlashPlate).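 Also: biotinylated peptide substrate captured on streptavidin FlashPlate, 33P phosphate transfer read by scintillation counting, 1% DMSO, lower incorporation means inhibition, percent relative to per-plate maximum and minimum signals.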 The class given is biochemical. To be noted: human RET kinase domain; 10 μM ATP; 1 hr at 30° C.

T2 sequence (P06493 whole entry): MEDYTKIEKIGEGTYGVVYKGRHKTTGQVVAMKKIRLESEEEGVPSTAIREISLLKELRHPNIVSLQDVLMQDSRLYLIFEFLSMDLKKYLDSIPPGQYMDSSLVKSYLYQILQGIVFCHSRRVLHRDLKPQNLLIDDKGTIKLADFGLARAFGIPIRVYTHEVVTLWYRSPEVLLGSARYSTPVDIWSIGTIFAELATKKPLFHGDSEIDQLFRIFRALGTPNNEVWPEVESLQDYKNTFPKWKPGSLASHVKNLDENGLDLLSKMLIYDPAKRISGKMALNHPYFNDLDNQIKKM
T2 sequence (P14635 whole entry partner): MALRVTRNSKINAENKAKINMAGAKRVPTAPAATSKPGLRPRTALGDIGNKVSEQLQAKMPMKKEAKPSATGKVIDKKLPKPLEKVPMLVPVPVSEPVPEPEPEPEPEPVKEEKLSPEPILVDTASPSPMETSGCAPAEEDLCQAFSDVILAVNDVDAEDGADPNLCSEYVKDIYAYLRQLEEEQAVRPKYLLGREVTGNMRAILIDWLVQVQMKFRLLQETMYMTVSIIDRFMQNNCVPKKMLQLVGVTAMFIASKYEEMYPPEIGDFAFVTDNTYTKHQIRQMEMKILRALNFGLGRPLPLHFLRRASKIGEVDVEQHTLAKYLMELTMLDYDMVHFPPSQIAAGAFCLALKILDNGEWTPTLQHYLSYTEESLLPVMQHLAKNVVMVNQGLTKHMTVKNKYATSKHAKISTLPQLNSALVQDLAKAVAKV

The IC50 is the midpoint of a concentration-inhibition curve. Lower therefore signals greater potency in that assay. As for `COCc1cccc2[nH]c(-c3n[nH]c4ncc(-c5cc[nH]c5)cc34)nc12` [Cpd 40, 3-(4-methoxymethyl-1H-benzoimidazol-2-yl)-5-(1H-pyrrol-3-yl)-1H-pyrazolo[3,4-b]pyridine], the IC50 on Aurora-A is approximately 1000 nM; on CDK1, 1190 nM; against VEGF-R2 it was 462 nM; against HER2, more than 100000 nM; in the assay with A375 malignant melanoma, 73.7 nM; against c-Src kinase, 327 nM. Also, the IC50 with HCT-116 colon carcinoma is 56.5 nM; in assay [1], 1220 nM.

Turning to `COCc1cccc2[nH]c(-c3n[nH]c4ncc(-c5cncc(C=O)c5)cc34)nc12` [Cpd 41, 5-[3-(4-methoxymethyl-1H-benzoimidazol-2-yl)-1H-pyrazolo[3,4-b]pyridin-5-yl]-pyridine-3-carbaldehyde], the IC50 against Aurora-A was 248 nM; at CDK1, 231 nM; on RET it was more than 100000 nM; at VEGF-R2, more than 1000 nM; against HER2, approximately 100000 nM; in the assay with A375 malignant melanoma, 265 nM. The IC50 was determined as 92.5 nM against c-Src kinase, 161 nM in the assay on HCT-116 colon carcinoma and 1220 nM in assay [1].

Regarding `CCNCc1cncc(-c2cnc3[nH]nc(-c4nc5c(COC)cccc5[nH]4)c3c2)c1` [Cpd 42, ethyl-{5-[3-(4-methoxymethyl-1H-benzoimidazol-2-yl)-1H-pyrazolo[3,4-b]pyridin-5-yl]-pyridin-3-ylmethyl}-amine], the IC50 against Aurora-A was 4460 nM; against CDK1, 9.8 nM; against RET, 7630 nM; against VEGF-R2, approximately 1000 nM; against HER2 it was more than 10000 nM; in the assay with A375 malignant melanoma, 239 nM. In addition, the IC50 at c-Src kinase turned out to be 358 nM; in the assay on HCT-116 colon carcinoma, 280 nM; in assay [1], 298 nM.

`COCc1cccc2[nH]c(-c3n[nH]c4ncc(-c5cncc(CN)c5)cc34)nc12` [Cpd 73, C-{5-[3-(4-methoxymethyl-1H-benzoimidazol-2-yl)-1H-pyrazolo[3,4-b]pyridin-5-yl]-pyridin-3-yl}-methylamine]: the IC50 was 4750 nM on Aurora-A; 42.7 nM on CDK1; more than 10000 nM against RET; more than 10000 nM at VEGF-R2; more than 10000 nM on HER2; 678 nM in the assay on A375 malignant melanoma. Moreover, the IC50 is 823 nM against c-Src kinase, 412 nM in the assay on HCT-116 colon carcinoma and 2550 nM in assay [1].

As to `COCc1cccc2[nH]c(-c3n[nH]c4ncc(-c5cncc(CNCCN6CCOCC6)c5)cc34)nc12` [Cpd 74, {5-[3-(4-methoxymethyl-1H-benzoimidazol-2-yl)-1H-pyrazolo[3,4-b]pyridin-5-yl]-pyridin-3-ylmethyl}-(2-morpholin-4-yl-ethyl)-amine], the half-inhibitory concentration (IC50) at Aurora-A was 6820 nM; at CDK1 it was 551 nM; at RET, approximately 100000 nM; at VEGF-R2, 284 nM; on HER2, approximately 100000 nM; with A375 malignant melanoma, 459 nM. For the same compound, the results for the IC50 (against c-Src kinase; in the assay with HCT-116 colon carcinoma; in [1]) were 954 nM, 386 nM and 4780 nM, respectively.

As for `COCCNCc1cncc(-c2cnc3[nH]nc(-c4nc5c(COC)cccc5[nH]4)c3c2)c1` [Cpd 75, (2-methoxy-ethyl)-{5-[3-(4-methoxymethyl-1H-benzoimidazol-2-yl)-1H-pyrazolo[3,4-b]pyridin-5-yl]-pyridin-3-ylmethyl}-amine], the IC50 is 4500 nM against Aurora-A; 63.6 nM on CDK1; more than 10000 nM against RET; 1640 nM on VEGF-R2; more than 10000 nM on HER2; 205 nM in the assay with A375 malignant melanoma. Besides, the IC50 against c-Src kinase is 378 nM; in the assay with HCT-116 colon carcinoma, 163 nM; in assay [1], 594 nM.

As to `COCc1cccc2[nH]c(-c3n[nH]c4ncc(-c5cncc(CNCCN(C)C)c5)cc34)nc12` [Cpd 76, N′-{5-[3-(4-methoxymethyl-1H-benzoimidazol-2-yl)-1H-pyrazolo[3,4-b]pyridin-5-yl]-pyridin-3-ylmethyl}-N,N-dimethyl-ethane-1,2-diamine], the IC50 against Aurora-A is 6600 nM; on CDK1, 595 nM; against RET, more than 100000 nM; against VEGF-R2, 1370 nM; against HER2, more than 100000 nM; in the assay on A375 malignant melanoma it was 178 nM. For the same compound, the IC50 is 1010 nM at c-Src kinase, 255 nM in the assay with HCT-116 colon carcinoma and 10100 nM in assay [1].

For the compound `COCc1cccc2[nH]c(-c3n[nH]c4ncc(-c5cncc(CNCCO)c5)cc34)nc12` [Cpd 77, 2-({5-[3-(4-methoxymethyl-1H-benzoimidazol-2-yl)-1H-pyrazolo[3,4-b]pyridin-5-yl]-pyridin-3-ylmethyl}-amino)-ethanol], the 50% inhibitory concentration (IC50) against Aurora-A was 3180 nM; against CDK1 it was 13 nM; against RET it was more than 10000 nM; at VEGF-R2, 349 nM; at HER2 it was more than 10000 nM; in the assay on A375 malignant melanoma, 1610 nM. In addition, the IC50 against c-Src kinase was 183 nM; in the assay on HCT-116 colon carcinoma it was 643 nM; in assay [1], 1620 nM.

On to `FC(F)(F)Oc1ccc2[nH]c(-c3n[nH]c4ncc(-c5cccnc5)cc34)nc2c1` [Cpd 94, 5-pyridin-3-yl-3-(5-trifluoromethoxy-1H-benzoimidazol-2-yl)-1H-pyrazolo[3,4-b]pyridine], for which the IC50 was more than 10000 nM at Aurora-A; 6 nM at CDK1; more than 100000 nM against RET; more than 100000 nM against HER2; 645 nM in the assay on A375 malignant melanoma; 756 nM at c-Src kinase. The IC50 in the assay with HCT-116 colon carcinoma was 519 nM; in [1] it was 799 nM.

On to `OCCOc1ccc2[nH]c(-c3n[nH]c4ncc(-c5cccnc5)cc34)nc2c1` [Cpd 95, 2-[2-(5-pyridin-3-yl-1H-pyrazolo[3,4-b]pyridine-3-yl)-1H-benzoimidazol-5-yloxyl]-ethanol], for which the IC50 against Aurora-A is 229 nM; on CDK1, 3.4 nM; on RET it was more than 1000 nM; against HER2 it was more than 100000 nM; in the assay on A375 malignant melanoma, 2650 nM; against c-Src kinase it was 74 nM. Also, the IC50 with HCT-116 colon carcinoma came out at 1410 nM; in [1], 1930 nM.

For `COc1ccc2[nH]c(-c3n[nH]c4ncc(-c5cncc(CNC(C)C)c5)cc34)nc2c1` [Cpd 102, isopropyl-{5-[3-(5-methoxy-1H-benzoimidazol-2-yl)-1H-pyrazolo[3,4-b]pyridin-5-yl]-pyridin-3-ylmethyl}-amine], the IC50 was 359 nM on Aurora-A; 3.2 nM on CDK1; approximately 1000 nM against RET; 269 nM on VEGF-R2; 10700 nM on HER2; 120 nM with A375 malignant melanoma. In addition, the IC50 against c-Src kinase stood at 11.7 nM; in the assay with HCT-116 colon carcinoma, 106 nM; in assay [1] it was 47.2 nM.
